Structures are written as SMILES.

For the assay, the target named is T1, recombinant human 15-PGDH (Homo sapiens, UniProt P15428).
T1 construct: purchased R&D Systems
T1 sequence (P15428 1-266): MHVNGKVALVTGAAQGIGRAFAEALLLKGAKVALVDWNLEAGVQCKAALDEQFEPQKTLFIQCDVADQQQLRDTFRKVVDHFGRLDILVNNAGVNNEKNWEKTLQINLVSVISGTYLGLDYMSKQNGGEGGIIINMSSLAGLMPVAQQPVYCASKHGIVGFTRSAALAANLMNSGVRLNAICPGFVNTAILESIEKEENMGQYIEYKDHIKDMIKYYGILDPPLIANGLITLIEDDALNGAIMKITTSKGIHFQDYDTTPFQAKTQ
As to the kind of experiment: 15-PGDH enzyme inhibition test. The assay is classed as biochemical. The note with it: 4 nM recombinant human 15-PGDH, 30 μM PGE2, 1 mM NAD+, 60 minutes after starting the reaction; read-out: IC50 Value. The method, then:
15-PGDH Enzyme Inhibition Test
A test compound and 4 nM recombinant human 15-PGDH (R&D Systems) were added, in 50 mM Tris-HCl (pH 8.0) containing 0.01% TWEEN 20 (Sigma) and 0.01% bovine gamma globulin (Sigma), to a 384-well Flat Bottom Black plate (Corning, 3820), and the resultant was allowed to stand still at room temperature for 12 minutes, and 30 μM PGE2 (Cayman Chemical) and 1 mM NAD+ (Sigma) were added thereto to start the reaction. 60 minutes after starting the reaction, measurement was performed using Synergy 2 (BioTeck) at an excitation wavelength of 340 nm and a fluorescence wavelength of 440 nm. Assuming that a fluorescence signal obtained with an assay buffer added instead of the test compound and NAD+ was 100% and that a signal obtained with NAD+ added was 0%, a concentration corresponding to 50% inhibition plotted on a concentration-reaction curve of the test compound was defined as an IC50 value. Incidentally, in the following tables, an IC50 value smaller than 10 nM was shown as +++, an IC50 value equal to or larger than 10 nM and smaller than 100 nM was shown as ++, and an IC50 value equal to or larger than 100 nM was shown as +.
On to `Cn1nc2cc(N3CCN(c4ncc(Cl)s4)c4cc(C(=O)N5CCC(F)(F)CC5)cnc43)ccn2c1=O` [Example 30-4], for which the IC50 is less than 10 nM.

As to `Cn1nc2cc(N3CC(C)(C)Oc4cc(C(=O)N5CCCCC5)cnc43)ccn2c1=O` [Example 1-93], the IC50 is less than 10 nM.

In the case of `O=C(O)c1ccc(N2CCOc3c2ccc(C(=O)N2CCCCC2)c3C2CC2)cc1` [Example 9-1, 4-(8-Cyclopropyl-7-(piperidine-1-carbonyl)-2,3-dihydro-4H-benzo[b][1,4]oxazin-4-yl)benzoic Acid], the IC50 was less than 10 nM.

In the case of `CNC(=O)c1ccc(N2CCOc3cc(C(=O)N4CCC(F)(F)CC4)ccc32)cc1OC` [Example 6-1, 4-(7-(4,4-Difluoropiperidine-1-carbonyl)-2,3-dihydro-4H-benzo[b][1,4]oxazin-4-yl)-2-methoxy-N-methylbenzamide], the IC50 was less than 10 nM.

In the case of `CCN1CCN(c2ccn3c(=O)n(C)nc3c2)c2ncc(C(=O)N3CCC(F)(F)CC3)cc21` [Example 29-5], the IC50 is less than 10 nM.

Regarding `CS(=O)(=O)c1ccc(N2CCOc3cc(C(=O)N4CCCCC4)cnc32)cc1Cl` [Example 1-254], the IC50 lay within 10 to 100 nM.

As to `Cc1cc(N2CCOc3cc(C(=O)N4CCCCC4)ccc32)n2ncnc2n1` [Example 24-1, (4-(5-Methyl-[1,2,4]triazolo[1,5-a]pyrimidin-7-yl)-3,4-dihydro-2H-benzo[b][1,4]oxazin-7-yl)(piperidin-1-yl)methanone], the IC50 was greater than 100 nM.

For the compound `CCOCCn1nc2cc(N3CCCc4cc(C(=O)N5CCCCC5)cnc43)ccn2c1=O` [Example 1-70], the IC50 is less than 10 nM.

Turning to `CN1C(=O)c2cc(N3CCOc4cc(C(=O)N5CCCCC5)cnc43)ccc2S1(=O)=O` [Example 1-164], the IC50 is 10 to 100 nM.

On to `C[C@H]1CCCN1C(=O)c1cnc2c(c1)OCCN2c1ccn2c(=O)n(C)nc2c1` [Example 8-29], for which the half-maximal inhibitory concentration (IC50) is less than 10 nM.

In the case of `CN1Cc2cc(N3CCOc4cc(C(=O)N5CCC(F)(F)CC5)cnc43)cnc2C1=O` [Example 1-45], the half-maximal inhibitory concentration (IC50) was less than 10 nM.

Consider `Cn1nc2cc(N3CCOc4cc(C(=O)N5CCC(F)(F)CC5)cnc43)ccn2c1=O` [Example 8-26], for which the 50% inhibitory concentration (IC50) was less than 10 nM.

`CCn1nc2cc(N3CCCc4cc(C(=O)N5CCC[C@H](CF)C5)cnc43)ccn2c1=O` [Example 1-113]: the concentration for half-maximal inhibition (IC50) was less than 10 nM.

`Cn1cnc2cc(N3CCOc4cc(C(=O)N5CCC(F)(F)CC5)cnc43)ccc2c1=O` [Example 1-226]: the IC50 was less than 10 nM.

For the compound `CC(C)n1nc2cc(N3CCOc4cc(C(=O)N5CCCCC5)cnc43)ccn2c1=O` [Example 1-27], the concentration for half-maximal inhibition (IC50) is less than 10 nM.

Take `Cn1nc2cc(N3CCOc4cc(C(=O)N5CCC6CC6C5)cnc43)ccn2c1=O` (stereo not drawn) [Example 8-46]: the half-maximal inhibitory concentration (IC50) is less than 10 nM.

With `CN(C)C1CCCN(C(=O)c2cnc3c(c2)OCCN3c2ccn3c(=O)n(C)nc3c2)C1` (stereo not drawn) [Example 33-1, 7-(7-(3-(Dimethylamino)piperidine-1-carbonyl)-2,3-dihydro-4H-pyrido[3,2-b] [1,4]oxazin-4-yl)-2-methyl-[1,2,4]triazolo[4,3-a]pyridin-3(2H)-one], the 50% inhibitory concentration (IC50) was greater than 100 nM.

For the compound `Cn1nc2cc(N3CCCc4cc(S(=O)(=O)C5CCCCC5)cnc43)ccn2c1=O` [Example 7-8], the IC50 is greater than 100 nM.

On to `O=C(O)c1ccc(N2CCOc3cc(C(=O)N4CCCCC4)ccc32)cn1` [Example 2-22], for which the IC50 is less than 10 nM.

With `COC(=O)Cn1nc2cc(N3CCOc4cc(C(=O)N5CCCCC5)cnc43)ccn2c1=O` [Example 1-40], the IC50 was less than 10 nM.

In the case of `C[C@@H]1CCCN(C(=O)c2cnc3c(c2)OCCN3c2ccn3c(=O)n(C)nc3c2)C1` [Example 8-31], the 50% inhibitory concentration (IC50) was less than 10 nM.

Take `CCn1nc2cc(N3CCCc4cc(C(=O)N5CCC5)cnc43)ccn2c1=O` [Example 8-147]: the IC50 was less than 10 nM.

As to `Cn1nc2cc(N3CCCc4cc(C(=O)N5CCCCCC5)cnc43)ccn2c1=O` [Example 8-124], the IC50 is less than 10 nM.

`Cn1nc2cc(N3CCCc4cc(C(=O)N5CCCCC5)cnc43)ccn2c1=O` [Example 1-94]: the concentration for half-maximal inhibition (IC50) is less than 10 nM.

Take `O=C(O)c1ccc(N2CCOc3cc(C(=O)N4CCCCC4)cnc32)cn1` [Example 2-38]: the IC50 was less than 10 nM.

With `Cn1nc2cc(N3CCOc4cc(C(=O)N5CCC(F)CC5)cnc43)ccn2c1=O` [Example 8-114], the concentration for half-maximal inhibition (IC50) was less than 10 nM.

Turning to `Cn1nc2cc(N3CCOc4cc(C(=O)N5CCC[C@H](O)C5)cnc43)ccn2c1=O` [Example 8-38], the half-maximal inhibitory concentration (IC50) was less than 10 nM.

For the compound `Cn1nc2cc(N3CCOc4cc(C(=O)N5CCC[C@H](CF)C5)cnc43)ccn2c1=O` [Example 8-65], the concentration for half-maximal inhibition (IC50) is less than 10 nM.

On to `C[C@@H]1CCN(C(=O)c2cnc3c(c2)OCCN3c2ccn3c(=O)n(C)nc3c2)C1` [Example 8-32], for which the half-maximal inhibitory concentration (IC50) was less than 10 nM.

For `CC(=O)N1CCN(c2ccn3c(=O)n(C)nc3c2)c2ncc(C(=O)N3CCCCC3)cc21` [Example 29-3], the IC50 was less than 10 nM.

As for `N#Cc1ccc(N2CCCc3cc(C(=O)N4CCCCC4)cnc32)cc1` [Example 1-209], the IC50 is less than 10 nM.

As for `CNC(=O)c1cn(C)c2cc(N3CCOc4cc(C(=O)N5CCCCC5)cnc43)ccc12` [Example 6-10], the IC50 is greater than 100 nM.

With `C#CC1CCN(C(=O)c2cnc3c(c2)OCCN3c2ccn3c(=O)n(C)nc3c2)CC1` [Example 8-111], the IC50 was less than 10 nM.

Consider `CN1Cc2cc(N3CCOc4cc(C(=O)N5CCC[C@@H](C(F)(F)F)C5)cnc43)ccc2C1=O` [Example 8-207], for which the IC50 was less than 10 nM.

With `O=C1NCc2cc(N3CCOc4cc(C(=O)N5CCC(F)(F)CC5)ccc43)ccc21` [Example 14-3], the half-maximal inhibitory concentration (IC50) was less than 10 nM.

Regarding `CN1C(=O)c2ccc(N3CCOc4cc(C(=O)N5CCCCC5)cnc43)cc2C1=O` [Example 1-166], the IC50 was less than 10 nM.

Take `COCCn1nc2cc(N3CCCc4cc(C(=O)N5CCCCC5)cnc43)ccn2c1=O` [Example 1-55]: the IC50 was less than 10 nM.

As for `O=C(O)c1ccc(N2CCOc3cc(C(=O)N4CCOCC4)cnc32)cc1` [Example 4-10], the IC50 lay in the range of 10 to 100 nM.

`CN1Cc2ccc(N3CCOc4cc(C(=O)N5CCCCC5)cnc43)cc2C1=O` [Example 1-225]: the half-inhibitory concentration (IC50) was in the range of 10 to 100 nM.

On to `Cn1nc2cc(N3CCOc4cc(C(=O)N5CCOCC5)cnc43)ccn2c1=O` [Example 8-225], for which the half-maximal inhibitory concentration (IC50) was in the range of 10 to 100 nM.

On to `COC(=O)c1cc2ccc(N3CCOc4cc(C(=O)N5CCCCC5)cnc43)cc2n1C` [Example 1-92], for which the IC50 was less than 10 nM.

Consider `O=C(c1cnc2c(c1)OCCN2c1ccc(-c2nnn[nH]2)cc1)N1CCCCC1` [Example 14-10], for which the IC50 was less than 10 nM.

As to `COc1cc(N2CCOc3cc(C(=O)N4CCCCC4)cnc32)cc2nn(C)c(=O)n12` [Example 1-230], the IC50 fell in the range of 10 to 100 nM.

For `O=C(O)c1ccc(N2CCCOc3cc(C(=O)N4CCCCC4)cnc32)cc1` [Example 2-8], the concentration for half-maximal inhibition (IC50) is less than 10 nM.

For `O=C1NCc2cc(N3CCCc4cc(C(=O)N5CCCCC5)cnc43)ccc21` [Example 14-4], the IC50 was less than 10 nM.

Regarding `O=C(c1cnc2c(c1)OCCN2c1ccn2c(=O)n(Cc3cccnc3)nc2c1)N1CCCCC1` [Example 1-32], the IC50 was less than 10 nM.

For the compound `O=C(c1cnc2c(c1)OCCN2c1ccc2c(=O)[nH]ccc2c1)N1CCC(F)(F)CC1` [Example 1-128], the IC50 was less than 10 nM.

With `CCc1ccc(N2CCOc3cc(C(=O)N4CCCCC4)cnc32)cc1` [Example 1-244], the IC50 was 10 to 100 nM.

Values taken from patent US12577217B2, “15-PGDH inhibitor” (KYORIN Pharmaceutical Co., Ltd., priority 2019, dated 2026).
